Measurements reported in patent US10118895B2, “ROR gamma (RORγ) modulators” (LEAD PHARMA HOLDING B.V., priority 2015, dated 2018).

Target: T1, RORγ (Homo sapiens, UniProt P51449)
T1 construct: expressed in transfected cells; host or cells: 293FT cells (Invitrogen), expression vector pFN26A (Promega)
T1 sequence (P51449 269-508 limits assumed): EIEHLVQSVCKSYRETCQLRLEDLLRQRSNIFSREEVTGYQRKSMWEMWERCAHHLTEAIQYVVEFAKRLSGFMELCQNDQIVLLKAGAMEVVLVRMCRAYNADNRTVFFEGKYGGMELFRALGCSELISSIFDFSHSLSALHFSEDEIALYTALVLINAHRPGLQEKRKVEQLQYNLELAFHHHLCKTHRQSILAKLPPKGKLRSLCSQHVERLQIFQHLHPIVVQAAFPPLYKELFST
Experiment: RORγ GAL4 reporter gene assay (luciferase readout, 293FT cells)
Format: cell-based
Details: inhibition of RORγ (GAL4-RORγ-LBD) in transfected 293FT cells, luciferase signal, overnight incubation; read-out: mean pIC50 (converted)
Description: RORγ GAL4 Reporter Gene Assay
Example inhibitors 1-38 were tested for their ability to inhibit RORγ activity in a RORγ GAL4 reporter gene assay. The assay procedure and results are described below.
RORγ GAL4 Reporter Gene Assay Description
A GAL4 one-hybrid reporter system employing luciferase readout was established to determine inhibition of RORγ in 293FT cells. The RORγ ligand-binding domain (LBD) was fused to the yeast GAL4 DNA binding domain (DBD) and placed under the control of the human cytomegalovirus (CMV) immediate early promoter, using expression vector pFN26A (Promega) and standard recombinant DNA cloning methods. To serve as a control in the assay, a similar vector was generated in which the GAL4-DBD was fused to Herpes simplex virus protein 16 (VP16), a constitutive transcriptional activator.
To monitor the inhibitory effect of compounds on RORγ, a transcriptional reporter construct was used. The pGL4.35 vector (Promega) contains nine copies of the GAL4 Upstream Activator Sequence (UAS). This sequence drives the transcription of the luciferase reporter gene luc2P in response to binding of a fusion protein containing the GAL4 DNA binding domain, as for example expressed by the GAL4-RORγ-LBD and GAL4-VP16 expression vectors described above. To allow a GAL4 fusion protein to drive the expression of the luciferase reporter, the pGL4.35 expression vector and the appropriate GAL4 fusion protein expression vector were bulk transfected in the 293FT cells using standard transfection techniques.
The day after transfection, cells were plated into 96 well plates, test compound was added and the plates were incubated overnight. Subsequently, the firefly luciferase activity was quantified using luciferase detection reagent and luminescence readout.
Detailed Assay Description
293FT cells (Invitrogen) were transfected with a GAL4 fusion protein expression vector (as described above) and the transcriptional reporter construct (pGL4.35, Promega). 60 μL of TransIT-293 transfection reagent (Mirus Bio) was added drop wise to 1500 μl Opti-MEM I Reduced Serum Medium (Invitrogen) and incubated at RT (RT) for 5 to 20 minutes. 1500 μL of this reagent mixture was added to 5 μg of GAL4 fusion protein expression vector and 5 μg of the transcriptional reporter construct, and incubated at RT for 20 minutes.
To harvest 293FT cells from a T75 flask, first the culture medium was taken off the cells. Subsequently, the cells were washed with Phosphate Buffered Saline (PBS) (Lonza), after which the PBS was removed. To dissociate the cells, 1 ml of TrypLE Express (Invitrogen) was added to the flask, followed by incubation at RT until the cells visually started to detach. Cells were collected in 5 mL of assay medium (DMEM culture medium (Lonza), 10% dialyzed FBS (Invitrogen) and Pen/Strep (Lonza)) to achieve a single cell suspension. 10×10^6 cells were spun down and re-suspended in 10 mL of assay medium. Subsequently, the cell suspension was added to the transfection mix tube, and then transferred as a whole to a T75 flask (Greiner), followed by overnight (16-24 hours) incubation at 37° C. and 5% CO2.
For compound screening, the cells were harvested (as described above) and counted. 13×10^6 cells were spun down, the supernatant was aspirated and the cells were re-suspended in 17.3 mL of assay medium obtaining a cell suspension of 0.75×10^6 cells/mL. 80 μL of cell suspension (60,000 cells) was plated per well into a white, flat bottom, tissue culture treated, 96 well screening plates (Greiner).
Test compounds were diluted, starting from a 10 mM dimethylsulfoxide (DMSO) stock solution, to serial dilutions in DMSO at 500× the final test concentration. Subsequently, these solutions were diluted to 5× the final test concentration in two 10-fold-dilution steps in assay medium. The final DMSO concentration of the 5× test compound solution was 1%. […]

## O=C(Cc1ccc(S(=O)(=O)CC2CC2(F)F)nc1)Nc1ccc(C(O)(C(F)(F)F)C(F)(F)F)cc1 (racemic) [(−)-22, (−)-2-[6-[(2,2-difluorocyclopropyl)methylsulfonyl]-3-pyridyl]-N-[4-[2,2,2-trifluoro-1-hydroxy-1-(trifluoromethyl)ethyl]phenyl]acetamide]
  IC50: ≤ 1000 nM

## CCC(O)(c1ccc(NC(=O)Cc2ccc(S(=O)(=O)CC3CC3)nc2)cc1)C(F)(F)F (racemic) [Example 20, 2-[6-(cyclopropylmethylsulfonyl)-3-pyridyl]-N-[4-[1-hydroxy-1-(trifluoromethyl)propyl]phenyl]acetamide]
  IC50: ≤ 1000 nM

## O=C(Cc1ccc(S(=O)(=O)CC2CC2)nc1)Nc1ccc(C(O)(C(F)(F)F)C(F)(F)F)cc1 [Example 1, 2-[6-(cyclopropylmethylsulfonyl)-3-pyridyl]-N-[4-[2,2,2-trifluoro-1-hydroxy-1-(trifluoromethyl)ethyl]phenyl]acetamide]
  IC50: ≤ 100 nM

## COC(c1ccc(NC(=O)Cc2ccc(S(=O)(=O)CC3CC3)nc2)cc1)(C(F)(F)F)C(F)(F)F [Example 2, 2-[6-(cyclopropylmethylsulfonyl)-3-pyridyl]-N-[4-[2,2,2-trifluoro-1-methoxy-1-(trifluoromethyl)ethyl]phenyl]acetamide]
  IC50: ≤ 100 nM

## Cc1cc(NC(=O)Cc2ccc(S(=O)(=O)CC3CC3)nc2)ccc1C(O)(C(F)(F)F)C(F)(F)F [Example 3, 2-[6-(cyclopropylmethylsulfonyl)-3-pyridyl]-N-[3-methyl-4-[2,2,2-trifluoro-1-hydroxy-1-(trifluoromethyl)ethyl]phenyl]acetamide]
  IC50: ≤ 100 nM

## O=C(Cc1ccc(S(=O)(=O)CC2CC2)nc1)Nc1ccc(C(O)(C(F)(F)F)C(F)(F)F)c(F)c1 [Example 4, 2-[6-(cyclopropylmethylsulfonyl)-3-pyridyl]-N-[3-fluoro-4-[2,2,2-trifluoro-1-hydroxy-1-(trifluoromethyl)ethyl]phenyl]acetamide]
  IC50: ≤ 100 nM

## O=C(Cc1ccc(S(=O)(=O)CC2CC2)nc1)Nc1ccc(C(O)(C(F)(F)F)C(F)(F)F)c(Cl)c1 [Example 5, N-[3-chloro-4-[2,2,2-trifluoro-1-hydroxy-1-(trifluoromethyl)ethyl]phenyl]-2-[6-(cyclopropylmethylsulfonyl)-3-pyridyl]acetamide]
  IC50: ≤ 100 nM

## COc1cc(NC(=O)Cc2ccc(S(=O)(=O)CC3CC3)nc2)ccc1C(O)(C(F)(F)F)C(F)(F)F [Example 6, 2-[6-(cyclopropylmethylsulfonyl)-3-pyridyl]-N-[3-methoxy-4-[2,2,2-trifluoro-1-hydroxy-1-(trifluoromethyl)ethyl]phenyl]acetamide]
  IC50: ≤ 1000 nM

## Cc1cc(C(O)(C(F)(F)F)C(F)(F)F)ccc1NC(=O)Cc1ccc(S(=O)(=O)CC2CC2)nc1 [Example 7, 2-[6-(cyclopropylmethylsulfonyl)-3-pyridyl]-N-[2-methyl-4-[2,2,2-trifluoro-1-hydroxy-1-(trifluoromethyl)ethyl]phenyl]acetamide]
  IC50: ≤ 1000 nM

## O=C(Cc1ccc(S(=O)(=O)CC2CC2)nc1)Nc1ccc(C(O)(C(F)(F)F)C(F)(F)F)cc1F [Example 8, 2-[6-(cyclopropylmethylsulfonyl)-3-pyridyl]-N-[2-fluoro-4-[2,2,2-trifluoro-1-hydroxy-1-(trifluoromethyl)ethyl]phenyl]acetamide]
  IC50: ≤ 100 nM

## COc1cc(C(O)(C(F)(F)F)C(F)(F)F)ccc1NC(=O)Cc1ccc(S(=O)(=O)CC2CC2)nc1 [Example 9, 2-[6-(cyclopropylmethylsulfonyl)-3-pyridyl]-N-[2-methoxy-4-[2,2,2-trifluoro-1-hydroxy-1-(trifluoromethyl)ethyl]phenyl]acetamide]
  IC50: ≤ 1000 nM

## O=C(Cc1ccc(S(=O)(=O)CC2CC2)nc1)Nc1ccc(C(O)(C(F)(F)F)C(F)(F)F)cn1 [Example 10, 2-[6-(cyclopropylmethylsulfonyl)-3-pyridyl]-N-[5-[2,2,2-trifluoro-1-hydroxy-1-(trifluoromethyl)ethyl]-2-pyridyl]acetamide]
  IC50: ≤ 1000 nM
